This note sets out measurements from US5077292A, “(2-imidazolin-2-ylamino) tetrahydroquinoxalines and methods for using same” (priority 1989, dated 1991).

Assay [1] addresses T1, Alpha 2 Adrenergic Receptors (Oryctolagus cuniculus, UniProt Q5ZQK3).
T1 construct: from tissue; host or cells: New Zealand white rabbit vas deferens, prostatic end, field stimulated
T1 sequence (Q5ZQK3 1-451): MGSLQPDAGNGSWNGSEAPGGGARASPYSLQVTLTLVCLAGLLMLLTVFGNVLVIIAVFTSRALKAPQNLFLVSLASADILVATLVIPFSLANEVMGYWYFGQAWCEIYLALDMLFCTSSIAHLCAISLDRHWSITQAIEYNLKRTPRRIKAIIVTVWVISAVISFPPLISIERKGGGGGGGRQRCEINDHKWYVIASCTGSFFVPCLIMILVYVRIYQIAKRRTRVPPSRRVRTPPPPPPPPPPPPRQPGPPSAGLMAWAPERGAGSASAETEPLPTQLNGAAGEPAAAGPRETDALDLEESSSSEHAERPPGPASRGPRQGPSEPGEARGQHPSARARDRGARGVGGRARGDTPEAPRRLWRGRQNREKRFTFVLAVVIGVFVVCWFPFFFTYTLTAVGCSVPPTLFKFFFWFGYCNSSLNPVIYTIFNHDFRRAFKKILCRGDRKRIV
Briefly: Rabbit Vas Deferens: Alpha 2 Adrenergic Receptors. It counts as cell-based, New Zealand white rabbit. The note with it: 35° C., field stimulated, 50% reduction in response height, n = number of test runs. The procedure: (§1) The tetrahydroquinoxalines produced in Examples 1 to 3 were tested for activity using the following in vitro methods.
Rabbit Vas Deferens: Alpha 2 Adrenergic Receptors
New Zealand white rabbits (2-3 kg) were killed by CO2 inhalation and the vasa deferentia removed. The prostatic ends of the vasa deferentia (2-3 cm lengths) were mounted between platinum ring electrodes in 9 ml organ baths and bathed in Krebs bicarbonate solution of the following composition (millimolar): NaCl 118.0; KCl 4.7; CaCl2 2.5; MgSO4 1.2; KH2 PO4 1.2; glucose 11.0; NaHCO3 25.0; which solution was maintained at 35° C. and bubbled with 95% O2 and 5% CO2. The initial tension of the vas deferens was 0.5 g. The tissues were left to equilibrate for 30 minutes before stimulation was started. Vasa were then field stimulated (0.1 Hz, 2 ms pulse width at 90 mA) using a square wave stimulator (WPI A310 Accupulser with A385 stimulus). […] Cumulative concentration-response curves were obtained for the tetrahydroquinoxaline being tested with a 4 minute contact time at each concentration. The reduction in response height was measured and expressed as a percentage of the height of the response before the addition of tetrahydroquinxoaline. Concentration response curves for each of tetrahydroquinoxalines were plotted. The effective concentration required for a 50% reduction in response height, expressed as EC50, were obtained from these curves and are set forth below.

Assay [2] concerns Alpha 3 Adrenergic Receptors. Kind of assay: Rabbit Saphenous Vein: Alpha 3 Adrenergic Receptors. It counts as cell-based, albino rabbit. The note with it: rabbit saphenous vein rings, 37° C., field stimulated; n = number of test runs. The procedure: as §1
Rabbit Saphenous Vein: Alpha 3 Adrenergic Receptors
Thoracic aorta and saphenous vein specimens were obtained from albino rabbits that were killed by CO2 inhalation. The aorta and saphenous vein were each cut into 3 mm rings. Tissues were placed in Krebs-Hensleit solution of the following composition (millimolar): NaCl 119; KCl 4.7; MgSO4 1.5, KH2 PO4 1.2; CaCl2 2.5; NaHCO3 25 and glucose 11.0. The solution also contained cocaine (0.1 millimolar) to block neuronal uptake and EDTA (30 micromolar) and ascorbic acid (5 micromolar) to prevent oxidation of the tetrahydroquinoxaline being tested. Tissues were hung in 10 ml organ baths and tension was measured via Grass FT03 force-displacement transducers. Resting tension was 1 g and 2 g for the saphenous vein and aorta, respectively. The solution was gassed with 95% O2 and 5% CO2 and maintained at 37° C. Tissues were allowed to equilibrate for 2 hours before stimulation and the cumulative addition of the tetrahydroquinoxaline being treated was started. Tissue stimulation was performed as with the rabbit vas deferens, described above. The contractions of the tissue were recorded isometrically as for the rabbit vas deferens assay. […]

A further assay relates to dmPGE2-induced diarrhea. Briefly: anti-diarrheal effects in cecectomized rats, dmPGE2-induced diarrhea. It counts as in vivo. The note with it: p.o. As for the experimental part: The tetrahydroquinoxaline produced in Example 1 was tested for anti-diarrheal effects and blood pressure effects using the following method.
Cecectomies were performed in unfasted rats as follows. Under anesthesia with methohexital (60 mg/kg. i.p.), a laparotyphlectomy was initiated with a 2 cm midventral incision. The cecum was lifted from the abdominal cavity and exteriorized onto a gauze drape. The cecal apex was freed by severing the avascular area of the mesocecum. Next, a ligature of #1 silk suture was positioned so as to occulude the cecum and its vasculature without compromising ileo-colonic patency. After the ligature was secured and ileo-colonic patency confirmed, the cecum was resected, and the remaining exposed cecal mucosa was washed with saline and cauterized. The intestinal segment was then returned to the abdominal cavity, and the abdominal muscle facia closed with interrupted 4/0 chromic-gut sutures. The dermal incision was closed with 9 mm stainless steel wound clips that were removed approximately 1 week post surgery. An arterial line was also implanted into the abdominal aorta and vena cava via the femoral vessels, in a manner similar to that described in Example 10. Immediately following the surgical procedure, animals were returned to their cages and allowed free access to food and water. Animals were permitted at least 48 hour recovery period before being used in experiments.
The cecectomized rats were put into individual wire-bottomed cages placed over sheets of clean paper, and deprived of food and water for the duration of the assay. The MAP was monitored, as described in Example 10, throughout the assay. Rats were given a 2 hour acclimatization period prior to the start of the assay in order to eliminate sporadic episodes of anxiety-induced defecation. During this period they were observed also for consistent occurrences of pelleted feces; an animal producing other than a pelleted stool was disqualified from the study.
Diarrhea was induced with oral administration of 16,16-dimethyl prostaglandin E2 (dmPGE2) in 3.5% EtOH. The tetrahydro-quinoxaline was administered by gavage after the onset of diarrheal episodes. The cage papers were removed and examined at 30 minute intervals for dmPGE2 -induced diarrhea. Fecal output was recorded at each interval and fecal consistency is assigned a numerical score in each experimental group as follows: 1=normal pelleted stool; 2=soft-formed stools; 3=water stool and/or diarrhea. The fecal output index (FOI) is defined as the summation of the number of defecation episodes and their ranked consistency score within an observation period.

Regarding `Brc1c(NC2=NCCN2)ccc2c1NCCN2` [Example 1, 5-Bromo-6-(2-imidazolin-2-ylamino)-1,2,3,4-tetrahydroquinoxaline], the EC50 in assay [1] is 1.75 nM; in assay [2], 92 ± 19 nM. Further, the “Percent Reduction in FOI versus dmPGE2 Control” value in the assay with dmPGE2-induced diarrhea (0.01 mg/kg) was found to be 17%; with dmPGE2-induced diarrhea (0.03 mg/kg), 60%; with dmPGE2-induced diarrhea (0.10 mg/kg), 57%; in the assay with dmPGE2-induced diarrhea (0.30 mg/kg) it was 76%; in the assay with dmPGE2-induced diarrhea (1.00 mg/kg), 98%; in the assay with dmPGE2-induced diarrhea (3.00 mg/kg) it was 98%. Further, in the assay with dmPGE2-induced diarrhea (10.00 mg/kg), the “Percent Reduction in FOI versus dmPGE2 Control” value stood at 100%. Also, the “anti-diarrheal effects (in words)” value in the assay with dmPGE2-induced diarrhea (cecectomized rats, dmPGE2-induced diarrhea) is “substantial anti-diarrheal effects”.

Broadly, the EC50 is the concentration that produces a half-maximal response. Low readings indicate greater potency, high ones weaker potency.
